The text below walks through data of patent US20240269113A1, “3-(2-(DIMETHYLAMINO)ETHYL)-1H-INDOL-4-yl DERIVATIVES” (priority 2023, published 2024).

The structures appear in SMILES notation.

One data set is classed as in vitro ADME. As to the method: The elimination rate constant and half-life (t1/2) were determined using Ln(MS response) vs time plots. […] The human plasma stability data are included in table A.
Regarding `CN(C)CCc1c[nH]c2cccc(OC(=O)Cc3ccccc3)c12` [Compound 176, 3-(2-(dimethylamino)ethyl)-1H-indol-4-yl 2-phenylacetate], the “Human Plasma Maximum % Psilocin” value is 100%.
With `CN(C)CCc1c[nH]c2cccc(OC(=O)c3cccnc3)c12` [Compound 91, 3-(2-(dimethylamino)ethyl)-1H-indol-4-yl nicotinate], the “Human Plasma Maximum % Psilocin” value was 100%.
Take `CN(C)CCc1c[nH]c2cccc(OC(=O)CCCc3ccccc3)c12` [Compound 96, 3-(2-(dimethylamino)ethyl)-1H-indol-4-yl 4-phenylbutanoate]: the “Human Plasma Maximum % Psilocin” value is 75%.
As to `CC(=O)N(C)CCOC(=O)Oc1cccc2[nH]cc(CCN(C)C)c12` [Compound 87, 3-(2-(dimethylamino)ethyl)-1H-indol-4-yl (2-(N-methylacetamido)ethyl) carbonate], the “Human Plasma Maximum % Psilocin” value worked out at 91%.
As for `CC(=O)Oc1ccccc1C(=O)Oc1cccc2[nH]cc(CCN(C)C)c12` [Compound 99, 3-(2-(dimethylamino)ethyl)-1H-indol4-yl 2-acetoxybenzoate], the “Human Plasma Maximum % Psilocin” value stood at 100%.

The source holds these as a separate data set.
Experimental: Psilocin was also run as an additional control to monitor psilocin formation in a semi-quantitative manner.
Samples were analysed by UHPLC-MS/MS—Waters™ Acquity UPLC system, Waters™ Xevo TQ-XS on a Waters™ Acquity UPLC® HSS T3 column (1.8 μm, 2.1 mm×30 mm), mobile phases were water+0.1% formic acid and methanol+0.1% formic acid.
In addition, the appearance of psilocin from test compounds was monitored and assessed (as a percentage) against control psilocin peaks (at Time 0) to provide a semi-quantitative measure of psilocin release.
Consider `CC(=O)Oc1ccccc1C(=O)Oc1cccc2[nH]cc(CCN(C)C)c12` [Compound 99, 3-(2-(dimethylamino)ethyl)-1H-indol4-yl 2-acetoxybenzoate], for which the “Human Hepatocytes Maximum % Psilocin” value is on record as 100%.
